Values after ≈ are worked out from the molar mass of the structure shown.
How the values were obtained:
Format in all cases: functional
[1] = system: Streptococcus pyogenes; experiment: Antibacterial activity against Streptococcus pyogenes ATCC 12384 assessed as growth inhibition at 10 to 100 ug/uL after 18 hr by disk diffusion method
[2] = system: Escherichia coli; experiment: Antibacterial activity against Escherichia coli ATCC 49696 assessed as growth inhibition at 10 to 100 ug/uL after 18 hr by disk diffusion method
[3] = system: Staphylococcus aureus; experiment: Antibacterial activity against Staphylococcus aureus ATCC 13150 assessed as growth inhibition at 10 to 100 ug/uL after 18 hr by disk diffusion method
[4] = system: Salmonella typhimurium; experiment: Antibacterial activity against Salmonella enterica subsp. enterica serovar Typhimurium ATCC 13311 assessed as growth inhibition at 10 to 100 ug/uL after 18 hr by disk diffusion method
[5] = system: Streptococcus pyogenes; experiment: Antibacterial activity against Streptococcus pyogenes ATCC 12384 assessed as growth inhibition after 18 hr by microbroth dilution method; settings: ATCC 12384, 18 h
[6] = system: Staphylococcus aureus; experiment: Antibacterial activity against Staphylococcus aureus ATCC 13150 assessed as growth inhibition after 18 hr by microbroth dilution method; settings: ATCC 13150, 18 h
[7] = system: Escherichia coli; experiment: Antibacterial activity against Escherichia coli ATCC 49696 assessed as growth inhibition after 18 hr by microbroth dilution method; settings: ATCC 49696, 18 h
[8] = system: Salmonella typhimurium; experiment: Antibacterial activity against Salmonella enterica subsp. enterica serovar Typhimurium ATCC 13311 assessed as growth inhibition after 18 hr by microbroth dilution method; settings: ATCC 13311, 18 h
[9] = system: Salmonella typhimurium; experiment: Antibacterial activity against Salmonella enterica subsp. enterica serovar Typhimurium ATCC 13311 assessed as growth inhibition at 30 ug/disk after 18 hr by disk diffusion method; settings: ATCC 13311, 18 h, read-out: IZ
[10] = system: Streptococcus pyogenes; experiment: Antibacterial activity against Streptococcus pyogenes ATCC 12384 assessed as growth inhibition at 30 ug/disk after 18 hr by disk diffusion method; settings: ATCC 12384, 18 h, read-out: IZ
[11] = system: Escherichia coli; experiment: Antibacterial activity against Escherichia coli ATCC 49696 assessed as growth inhibition at 30 ug/disk after 18 hr by disk diffusion method; settings: ATCC 49696, 18 h, read-out: IZ
[12] = system: Staphylococcus aureus; experiment: Antibacterial activity against Staphylococcus aureus ATCC 13150 assessed as growth inhibition at 30 ug/disk after 18 hr by disk diffusion method; settings: ATCC 13150, 18 h, read-out: IZ

| Structure (SMILES) | inhibition zone (IZ) [1] [mm] | inhibition zone (IZ) [2] [mm] | inhibition zone (IZ) [3] [mm] | inhibition zone (IZ) [4] [mm] | MIC [5] [µg/mL] | MIC [6] [µg/mL] | MIC [7] [µg/mL] | MIC [8] [µg/mL] | zone of inhibition at 30 µg/disc [9] [mm] | zone of inhibition at 30 µg/disc [10] [mm] | zone of inhibition at 30 µg/disc [11] [mm] | zone of inhibition at 30 µg/disc [12] [mm] |
| --- | --- | --- | --- | --- | --- | --- | --- | --- | --- | --- | --- | --- |
| CC(C)CCC[C@@H](C)[C@H]1CC[C@H]2[C@@H]3C/C(=N\NC(=S)NC4CCCCC4)C4CCCC[C@]4(C)[C@H]3CC[C@]12C (some centres undefined) | 9.8 | 11.6 | 9.6 | 10.6 |  |  |  |  |  |  |  |  |
| CC(=O)O[C@H]1CC[C@@]2(C)C(C1)/C(=N/NC(=S)NC1CCCCC1)C[C@H]1[C@@H]3CC[C@H]([C@H](C)CCCC(C)C)[C@@]3(C)CC[C@@H]12 (some centres undefined) | 12.2 | 13.6 | 11.6 | 10.6 |  |  |  |  |  |  |  |  |
| CC(=O)O[C@H]1CC[C@@]2(C)C(C1)/C(=N/N=C1\SCC(=O)N1C1CCCCC1)C[C@H]1[C@@H]3CC[C@H]([C@H](C)CCCC(C)C)[C@@]3(C)CC[C@@H]12 (some centres undefined) | 21.6 | 20.8 | 18.8 | 19.2 | 64 (≈ 100 µM) | 32 (≈ 50 µM) | 32 (≈ 50 µM) | 32 (≈ 50 µM) |  |  |  |  |
| CC(C)CCC[C@@H](C)[C@H]1CC[C@H]2[C@@H]3C/C(=N\N=C4/SCC(=O)N4C4CCCCC4)C4C[C@@H](Cl)CC[C@]4(C)[C@H]3CC[C@]12C (some centres undefined) | 21.7 | 22.8 | 20.6 | 19.6 | 32 (≈ 51.9 µM) | 64 (≈ 104 µM) | 32 (≈ 51.9 µM) | 32 (≈ 51.9 µM) |  |  |  |  |
| CC(C)CCC[C@@H](C)[C@H]1CC[C@H]2[C@@H]3C/C(=N\NC(=S)NC4CCCCC4)C4C[C@@H](Cl)CC[C@]4(C)[C@H]3CC[C@]12C (some centres undefined) | 10.5 | 11.4 | 11.2 | 11.5 |  |  |  |  |  |  |  |  |
| CC(C)CCC[C@@H](C)[C@H]1CC[C@H]2[C@@H]3C/C(=N\N=C4/SCC(=O)N4C4CCCCC4)C4CCCC[C@]4(C)[C@H]3CC[C@]12C (some centres undefined) | 14.2 | 14 | 13.8 | 13.2 | 128 (≈ 220 µM) | 64 (≈ 110 µM) | 128 (≈ 220 µM) | 512 (≈ 880 µM) |  |  |  |  |
| CC1(C)S[C@@H]2[C@H](NC(=O)[C@H](N)c3ccc(O)cc3)C(=O)N2[C@H]1C(=O)O [AMOXICILLIN] |  |  |  |  | 32 (≈ 87.6 µM) | 32 (≈ 87.6 µM) | 32 (≈ 87.6 µM) | 32 (≈ 87.6 µM) | 17.2 | 18.2 | 20 | 17 |
